Source: patent US20250120946A1, “USE OF PYRROLE COMPOUND IN TREATMENT OF TUMORS” (NANJING SHIJIANG MEDICINE TECHNOLOGY CO., LTD, priority 2021, published 2025)
Where two headings read alike, the source gives them in different places. Each block holds one compound with its values, some of them ahead of it.

Key:
[1] = system: SW48 (human colon adenocarcinoma cell); assay: Cell viability, Promega CellTiter-Glo kit (intracellular ATP), SW48; assay type: cell-based; conditions: sensitive group, 3-4 days of culture, n=3, read-out: IC50 (50% inhibiting concentration), inhibitory effect on cell line
Description: (§1) In the experiment, the IC50 value of sunitinib or sunitinib malate on various tumor cell lines was determined.
(§2) After 3-4 days of culture, the relevant IC50 (50% inhibiting concentration) was measured (n=3).

[2] = system: CFPAC-1 (human pancreatic cancer cell); assay: Cell viability, Promega CellTiter-Glo kit (intracellular ATP), CFPAC-1; assay type: cell-based; conditions: insensitive group, 3-4 days of culture, n=3, read-out: IC50 (50% inhibiting concentration), inhibitory effect on cell line
Description: as §1, §2

[3] = system: NNMT protein-overexpressing NCI-H82 cell (NCI-H82 (ov-NNMT)); assay: Cell viability, Promega CellTiter-Glo kit, NNMT protein-overexpressing NCI-H82 cell; assay type: cell-based, human; conditions: n=3
Source text: (§3) The NNMT protein-overexpressing NCI-H82 cell (NCI-H82 (ov-NNMT)) was obtained by inserting the NNMT gene into NCI-H82 cell using a viral vector. The control NCI-H82 cell (NCI-H82 (Con)) was obtained by transfecting NCI-H82 cell with empty virus vector without carrying NNMT gene.

[4] = system: GB-1 (human glioblastoma cell); assay: Cell viability, Promega CellTiter-Glo kit (intracellular ATP), GB-1; assay type: cell-based; conditions: insensitive group, 3-4 days of culture, n=3, read-out: IC50 (50% inhibiting concentration), inhibitory effect on cell line
Description: as §1, §2

[5] = system: SF126 (human glioblastoma multiforme cell); assay: Cell viability, Promega CellTiter-Glo kit (intracellular ATP), SF126; assay type: cell-based; conditions: insensitive group, 3-4 days of culture, n=3, read-out: IC50 (50% inhibiting concentration), inhibitory effect on cell line
Description: as §1, §2

[6] = system: control NCI-H82 cell (NCI-H82 (Con)); assay: Cell viability, Promega CellTiter-Glo kit, control NCI-H82 cell; assay type: cell-based, human; conditions: n=3
Source text: as §3

[7] = system: NCI-H82 (human small cell lung cancer cell); assay: Cell viability, Promega CellTiter-Glo kit (intracellular ATP), NCI-H82; assay type: cell-based; conditions: sensitive group, 3-4 days of culture, n=3, read-out: IC50 (50% inhibiting concentration), inhibitory effect on cell line
Description: as §1

[8] = system: G-401 (human renal carcinoma Wilms cell); assay: Cell viability, Promega CellTiter-Glo kit (intracellular ATP), G-401; assay type: cell-based; conditions: sensitive group, 3-4 days of culture, n=3, read-out: IC50 (50% inhibiting concentration), inhibitory effect on cell line
Description: as §1, §2

[9] = system: MDA-MB-453 (breast cancer cell); assay: Cell viability, Promega CellTiter-Glo kit (intracellular ATP), MDA-MB-453; conditions: sensitive group, 3-4 days of culture, n=3
[10] = system: 786-O (clear cell renal cell adenocarcinoma cell); assay: Cell viability, Promega CellTiter-Glo kit (intracellular ATP), 786-O; assay type: cell-based, human; conditions: insensitive group, 3-4 days of culture, n=3, read-out: IC50 (50% inhibiting concentration), inhibitory effect on cell line
Description: as §1, §2

[11] = system: WSU-DLCL2 (human diffuse large B-cell lymphoma); assay: Cell viability, Promega CellTiter-Glo kit (intracellular ATP), WSU-DLCL2; assay type: cell-based; conditions: sensitive group, 3-4 days of culture, n=3, read-out: IC50 (50% inhibiting concentration), inhibitory effect on cell line
Description: as §1, §2

IC50 ([1]; Homo sapiens, SW48, SW48): 1150 nM | IC50 ([2]; Homo sapiens, CFPAC-1, CFPAC-1): 19600 nM | IC50 ([3]; Homo sapiens, NCI-H82, NCI-H82 with NNMT gene inserted via viral vector (NNMT protein overexpressed)): 2960 nM | IC50 ([4]; Homo sapiens): 10700 nM | IC50 ([5]; Homo sapiens, SF-126, SF126): 11400 nM | IC50 ([6]; Homo sapiens, NCI-H82, NCI-H82 transfected with empty virus vector without NNMT gene): 1240 nM | IC50 ([7]; Homo sapiens, NCI-H82, NCI-H82): 1300 nM | IC50 ([8]; Homo sapiens, G-401, G-401): 2910 nM | IC50 ([9]; Homo sapiens, MDA-MB-453, read-out: IC50 (50% inhibiting concentration), inhibitory effect on cell line, MDA-MB-453): 2470 nM | IC50 ([10]; Homo sapiens, 786-0, 786-O): 23700 nM | IC50 ([11]; Homo sapiens, WSUDLCL2, WSU-DLCL2): 1340 nM
SMILES: CCN(CC)CCNC(=O)c1c(C)[nH]c(/C=C2\C(=O)Nc3ccc(F)cc32)c1C [Sunitinib, sunitinib]

IC50 ([1]; SW48): 1470 nM | IC50 ([2]; CFPAC-1): 16800 nM | IC50 ([3]; NCI-H82 with NNMT gene inserted via viral vector (NNMT protein overexpressed)): 3310 nM | IC50 [4]: 12100 nM | IC50 ([5]; SF126): 12400 nM | IC50 ([6]; NCI-H82 transfected with empty virus vector without NNMT gene): 1210 nM | IC50 ([7]; NCI-H82): 1290 nM | IC50 ([8]; G-401): 2500 nM | IC50 ([9]; read-out: IC50 (50% inhibiting concentration), inhibitory effect on cell line, MDA-MB-453): 2330 nM | IC50 ([10]; 786-O): 17800 nM | IC50 ([11]; WSU-DLCL2): 1110 nM
SMILES: CCN(CC)CCNC(=O)c1c(C)[nH]c(/C=C2\C(=O)Nc3ccc(F)cc32)c1C [Sunitinib malate, sunitinib malate]
